# Assay results published in patent publication US20220053758A1, “Microcapsule With Acetamides And Diflufenican” (Monsanto Technology LLC, priority 2020, published 2022).
# Columns and labels:
# [1] = system: proso millet (PANMI); test: Greenhouse pre-emergent efficacy, Example 3B; assay type: in vivo, Panicum miliaceum; conditions: both rates tested (½× and 1×)
# From the text: (§1) ACC, DFF and MRB were used as the commercial products Warrant®, Brodal® and TriCor® DF as described in Example 3A above. Further, also a DFF+MRB pre-mix (200 g/L DFF+400 g/L MRB, suspension concentrate) was used. For GR (glyphosate resistant) palmer amaranth (AMAPA), at 1× rate, all 2- and 3-way treatments provided >95% control. Except for the DFF+MRB pre-mix, these treatments also provided >95% control of GR AMAPA at ½× rate as well. No single active ingredient provided acceptable control of GR AMAPA in this trial.
# [2] = system: AMAPA (WR-2015-008), resistant against glyphosate and metribuzin (PSII-inhibitor), PPO-, HPPD- and ALS-inhibitor herbicides; test: Greenhouse pre-emergent efficacy on multiple resistant AMAPA, Example 3D; assay type: in vivo, Amaranthus palmeri; conditions: 21 DAT
# Protocol: (§2) Premixes of present disclosure were compared with ACC and DFF used as the commercial products Warrant® and Brodal® as described in Example 3A above, as well as a corresponding tank-mix of ACC+DFF. Two different pre-mix formulations according to the present disclosure were evaluated for pre-emergent efficacy on the following difficult to control multiple resistant palmer amaranth (Amaranthus palmeri, AMAPA) species: AMAPA (WR-2015-002), resistant against glyphosate, PPO-, HPPD- and ALS-inhibitor herbicides; and AMAPA (WR-2015-008), resistant against glyphosate and metribuzin (PSII-inhibitor), PPO-, HPPD- and ALS-inhibitor herbicides.
# (§3) At 21 DAT (days after treatment), visual percent control as well as fresh biomass ratings were recorded for all replications. […] Percent control was then calculated based on the respective untreated control plants.
# [3] = system: AMAPA (WR-2015-002), resistant against glyphosate, PPO-, HPPD- and ALS-inhibitor herbicides; test: as above; assay type: in vivo, Amaranthus palmeri; conditions: 21 DAT
# Protocol: as §2, §3
# [4] = system: glyphosate resistant Canola (Roundup Ready® Canola); test: Greenhouse post-emergent efficacy in glyphosate resistant Canola, Example 3C; assay type: in vivo; conditions: visual rating 14 DAT
# Protocol: ACC and DFF were used as the commercial products Warrant® and Brodal® as described in Example 3A above. The seeds of glyphosate resistant Canola (Roundup Ready® Canola) were planted in 3.5-inches (8.89 cm) square plastic pots filled with a potting media of 75% silt loam and 25% Redi-earth (Sun Gro, Bellevue, Wash.). The temperature conditions were 22° C. day and 17° C. night with 14 hours of supplemental light (approximately 600 microeinsteins). The pots are placed in a controlled-environment greenhouse equipped with sub-irrigation. The treatments applications were applied to the plants with a track sprayer generally using a TTI110015 nozzle spray nozzle. The spray nozzle was 16 inches (40.64 cm) above the top of the plants and a spray volume rate of about 140 L/ha was applied. The plants were sprayed when canola was at the V3-V4 growth stage. Visual ratings (% control) were collected at 14 DAT.
# [5] = system: GR (glyphosate resistant) palmer amaranth (AMAPA); test: Greenhouse pre-emergent efficacy, Example 3B; assay type: in vivo, Amaranthus palmeri; conditions: rates tested (½× and 1×)
# From the text: as §1
# [6] = 25° C.; cited from earlier work
# [7] = group line over the three rates (1×, ½×, ¼×)
Compound,"control of proso millet (PANMI), in words [1]","Injury Average AMAPA (WR-2015-008) ([2]; 1× (ACC 1260, DFF 150 g ai/ha)) [%]","Injury Average AMAPA (WR-2015-008) ([2]; ½× (ACC 630, DFF 75 g ai/ha)) [%]","Injury Average AMAPA (WR-2015-002) ([3]; 1× (ACC 1260, DFF 150 g ai/ha)) [%]","Injury Average AMAPA (WR-2015-002) ([3]; ½× (ACC 630, DFF 75 g ai/ha)) [%]","Canola Crop Injury Average [4, 7] [%]","Canola Crop Injury Average ([4]; ¼× (ACC 315, DFF 38 g ai/ha)) [%]","Canola Crop Injury Average ([4]; ½× (ACC 630, DFF 75 g ai/ha)) [%]","control of GR AMAPA, in words [5]",water solubility [6]
"CCOCN(C(=O)CCl)c1c(C)cccc1CC [ACC, 2-chloro-N-(ethoxymethyl)-N-(2-ethyl-6-methylphenyl)acetamide]",weak control,73.8,60.6,81.6,61.9,6.7,0.0,2.5,weak control,–
"O=C(Nc1ccc(F)cc1F)c1cccnc1Oc1cccc(C(F)(F)F)c1 [DFF, N-(2,4-difluorophenyl)-2-[3-(trifluoromethyl)phenoxy]-3-pyridinecarboxamide]",weak control,75.6,65.6,70.6,51.3,18.3,3.1,13.8,weak control,about 50 μg/L
